According to patent US20250282799A1, “SUBSTITUTED PYRIDO[4,3-d]PYRIMIDINES AS KRAS MODULATORS” (Alterome Therapeutics, Inc., priority 2023, published 2025):

test system: KRAS G12V dependent lung adenocarcinoma cell line, NCI-H441; assay: Cellular pERK (Thr202/Tyr204) FRET/HTRF assay; type: cell-based; conditions: Homo sapiens, NCI-H441, cellular pERK (Thr202/Tyr204) HTRF, NCI-H441 cells
Method in brief: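 Adherent NCI-H441 cells, plated the previous night, receive test compound for one hour at 37 °C. They are then lysed with a buffer containing phosphatase inhibitors and incubated at room temperature with Eu3+-cryptate and d2 labelled anti-pERK antibodies. HTRF signal gives IC50 by curve fitting.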

IC50 | Compound
< 50 nM | [2H]C([2H])(F)Oc1c(F)c(F)cc2cccc(-c3ncc4c(N5CCCC[C@H]6[C@H](F)[C@H]65)nc(OC([2H])([2H])[C@@]56CCCN5C[C@H](F)C6)nc4c3F)c12 [Example 95, 7-(6,7-difluoro-8-(fluoromethoxy-d2)naphthalen-1-yl)-8-fluoro-4-((1S,7R,8S)-8-fluoro-2-azabicyclo[5.1.0]octan-2-yl)-2-(((2R,7aS)-2-fluorotetrahydro-1H-pyrrolizin-7a(5H)-yl)methoxy-d2)pyrido[4,3-d]pyrimidine]
< 50 nM | C#Cc1c(F)ccc2cc(N)cc(-c3ncc4c(N5CCOC[C@H]6[C@H](F)[C@H]65)nc(OC[C@@]56CCCN5C/C(=C\F)C6)nc4c3C)c12 [Example 427, 5-ethynyl-6-fluoro-4-(4-((1S,7S,8S)-8-fluoro-5-oxa-2-azabicyclo[5.1.0]octan-2-yl)-2-(((S,Z)-2-(fluoromethylene)tetrahydro-1H-pyrrolizin-7a(5H)-yl)methoxy)-8-methylpyrido[4,3-d]pyrimidin-7-yl)naphthalen-2-amine]
< 50 nM | C#Cc1c(F)ccc2cc(N)cc(-c3ncc4c(N5CCOC[C@H]6[C@H](F)[C@H]65)nc(OC[C@@]56CCCN5C[C@]5(CC5(F)F)C6)nc4c3F)c12 (single isomer, unassigned) [Example 210]
< 50 nM | C#Cc1c(F)ccc2cc(N)cc(-c3ncc4c(N5CCOC[C@H]6[C@H](F)[C@H]65)nc(OC[C@]56C[C@@H](F)CN5CCC6=O)nc4c3F)c12 [Example 414, (6R,7aS)-7a-(((7-(3-amino-8-ethynyl-7-fluoronaphthalen-1-yl)-8-fluoro-4-((1S,7S,8S)-8-fluoro-5-oxa-2-azabicyclo[5.1.0]octan-2-yl)pyrido[4,3-d]pyrimidin-2-yl)oxy)methyl)-6-fluorohexahydro-1H-pyrrolizin-1-one]
< 50 nM | C#Cc1c(F)ccc2cc(N)cc(-c3ncc4c(N5CCOC[C@H]6[C@H](F)[C@H]65)nc(OC[C@@]56CCCN5C/C(=C\F)C6)nc4c3F)c12 [Example 155, 5-Ethynyl-6-fluoro-4-(8-fluoro-4-((1S,7S,8S)-8-fluoro-5-oxa-2-azabicyclo[5.1.0]octan-2-yl)-2-(((S,Z)-2-(fluoromethylene)tetrahydro-1H-pyrrolizin-7a(5H)-yl)methoxy)pyrido[4,3-d]pyrimidin-7-yl)naphthalen-2-amine]
50 to 500 nM | [2H]C([2H])(Oc1nc(N2CCOC[C@H]3[C@H](F)[C@H]32)c2cnc(-c3nc(N)cc4ccc(F)c(Cl)c34)c(F)c2n1)[C@@]12CCCN1C[C@H](F)C2 [Example 152, 8-chloro-7-fluoro-1-(8-fluoro-4-((1S,7S,8S)-8-fluoro-5-oxa-2-azabicyclo[5.1.0]octan-2-yl)-2-(((2R,7aS)-2-fluorotetrahydro-1H-pyrrolizin-7a(5H)-yl)methoxy-d2)pyrido[4,3-d]pyrimidin-7-yl)isoquinolin-3-amine]
< 50 nM | [2H]C([2H])(F)Oc1c(F)c(F)cc2cc(N)cc(-c3ncc4c(N5CCOC[C@H]6[C@H](F)[C@H]65)nc(OC[C@@]56CCCN5C/C(=C\F)C6)nc4c3F)c12 [Example 162, 6,7-Difluoro-4-(8-fluoro-4-((1S,7S,8S)-8-fluoro-5-oxa-2-azabicyclo[5.1.0]octan-2-yl)-2-(((S,Z)-2-(fluoromethylene)tetrahydro-1H-pyrrolizin-7a(5H)-yl)methoxy)pyrido[4,3-d]pyrimidin-7-yl)-5-(fluoromethoxy-d2)naphthalen-2-amine]
< 50 nM | [2H]c1cc2cc(N)cc(-c3ncc4c(N5CCOC[C@H]6[C@H](F)[C@H]65)nc(OC([2H])([2H])[C@@]56CCCN5C[C@H](F)C6)nc4c3F)c2c(C#C)c1F [Example 256, 5-ethynyl-6-fluoro-4-(8-fluoro-4-((1S,7S,8S)-8-fluoro-5-oxa-2-azabicyclo[5.1.0]octan-2-yl)-2-(((2R,7aS)-2-fluorotetrahydro-1H-pyrrolizin-7a(5H)-yl)methoxy-d2)pyrido[4,3-d]pyrimidin-7-yl)naphthalen-7-d-2-amine]
50 to 500 nM | [2H]C([2H])(Oc1nc(N2CCOC[C@H]3[C@H](F)[C@H]32)c2cnc(-c3cc(N)c(F)c(C4CC4)c3C(F)(F)F)c(F)c2n1)[C@@]12CCCN1C[C@H](F)C2 [Example 270, 3-cyclopropyl-2-fluoro-5-(8-fluoro-4-((1S,7S,8S)-8-fluoro-5-oxa-2-azabicyclo[5.1.0]octan-2-yl)-2-(((2R,7aS)-2-fluorotetrahydro-1H-pyrrolizin-7a(5H)-yl)methoxy-d2)pyrido[4,3-d]pyrimidin-7-yl)-4-(trifluoromethyl)aniline]
< 50 nM | [2H]C([2H])(F)Oc1c(F)ccc2cc(N)cc(-c3ncc4c(N5CCOC[C@H]6[C@H](F)[C@H]65)nc(OC[C@]56C/C(=C/F)CN5CCC65CC5)nc4c3F)c12 [Example 389, 6-fluoro-4-(8-fluoro-4-((1S,7S,8S)-8-fluoro-5-oxa-2-azabicyclo[5.1.0]octan-2-yl)-2-(((R,Z)-6′-(fluoromethylene)tetrahydrospiro[cyclopropane-1,1′-pyrrolizin]-7a′(5′H)-yl)methoxy)pyrido[4,3-d]pyrimidin-7-yl)-5-(fluoromethoxy-d2)naphthalen-2-amine]
500 to 10000 nM | [2H]C([2H])(Oc1nc(N2CCOC[C@@H]3[C@@H](Cl)[C@@H]32)c2cnc(-c3cc(N)cc4ccc(Cl)c(C#C)c34)c(F)c2n1)[C@@]12CCCN1[C@H](C)[C@H](F)C2 [Example 345, 6-chloro-4-(4-((1R,7R,8R)-8-chloro-5-oxa-2-azabicyclo[5.1.0]octan-2-yl)-8-fluoro-2-(((2R,3R,7aS)-2-fluoro-3-methyltetrahydro-1H-pyrrolizin-7a(5H)-yl)methoxy-d2)pyrido[4,3-d]pyrimidin-7-yl)-5-ethynylnaphthalen-2-amine]

same assay, conditions: Homo sapiens, NCI-H441, cellular pERK HTRF, NCI-H441 (KRAS G12V) cells

IC50 | Compound
< 50 nM | C#Cc1c(F)ccc2cc(N)cc(-c3ncc4c(N5CCOC[C@H]6[C@H](F)[C@H]65)nc(OCC56CCN5CC(F)(F)C6)nc4c3F)c12 (stereo partly drawn) [Example 476, 4-(2-((3,3-difluoro-1-azabicyclo[3.2.0]heptan-5-yl)methoxy)-8-fluoro-4-((1S,7S,8S)-8-fluoro-5-oxa-2-azabicyclo[5.1.0]octan-2-yl)pyrido[4,3-d]pyrimidin-7-yl)-5-ethynyl-6-fluoronaphthalen-2-amine]
< 50 nM | C#Cc1c(F)ccc2cc(O)cc(-c3ncc4c(N5CCOC[C@H]6[C@H](F)[C@H]65)nc(OC[C@]56C/C(=C/F)CN5CCC65CC5)nc4c3C)c12 [Example 449, 5-ethynyl-6-fluoro-4-(4-((1S,7S,8S)-8-fluoro-5-oxa-2-azabicyclo[5.1.0]octan-2-yl)-2-(((R,Z)-6′-(fluoromethylene)tetrahydrospiro[cyclopropane-1,1′-pyrrolizin]-7a′(5′H)-yl)methoxy)-8-methylpyrido[4,3-d]pyrimidin-7-yl)naphthalen-2-ol]
< 50 nM | [2H]C([2H])(Oc1nc(N2CCOC[C@H]3[C@H](Cl)[C@H]32)c2cnc(-c3cc(O)cc4ccc(F)c(C#C)c34)c(F)c2n1)[C@@]12CCCN1[C@H](C)[C@H](F)C2 [Example 475, 4-(4-((1S,7S,8S)-8-chloro-5-oxa-2-azabicyclo[5.1.0]octan-2-yl)-8-fluoro-2-(((2R,3R,7aS)-2-fluoro-3-methyltetrahydro-1H-pyrrolizin-7a(5H)-yl)methoxy-d2)pyrido[4,3-d]pyrimidin-7-yl)-5-ethynyl-6-fluoronaphthalen-2-ol]
500 to 10000 nM | C=C1CN2CCC[C@@]2(COc2nc(N3CCOC[C@H]4[C@H](F)[C@H]43)c3cc(C(F)(F)F)c(-c4ccc(F)c5sc(N)c(C#N)c45)c(F)c3n2)C1 (atropisomer, axis not shown) [Example 433, 2-amino-7-fluoro-4-((R)-8-fluoro-4-((1S,7S,8S)-8-fluoro-5-oxa-2-azabicyclo[5.1.0]octan-2-yl)-2-(((S)-2-methylenetetrahydro-1H-pyrrolizin-7a(5H)-yl)methoxy)-6-(trifluoromethyl)quinazolin-7-yl)benzo[b]thiophene-3-carbonitrile]

same assay, conditions: Homo sapiens, NCI-H441, pERK HTRF, NCI-H441 cells (KRAS G12V)

IC50 | Compound
< 50 nM | [2H]C([2H])(Oc1nc(N2CCOC[C@@H]3[C@H]2C3(F)F)c2cnc(-c3cc(N)cc4cc(F)c(F)c(C#C)c34)c(F)c2n1)[C@@]12CCCN1C[C@H](F)C2 [Example 19, 4-(4-((1S,7S)-8,8-Difluoro-5-oxa-2-azabicyclo[5.1.0]octan-2-yl)-8-fluoro-2-(((2R,7aS)-2-fluorotetrahydro-1H-pyrrolizin-7a(5H)-yl)methoxy-d2)pyrido[4,3-d]pyrimidin-7-yl)-5-ethynyl-6,7-difluoronaphthalen-2-amine]

same assay, conditions: cellular pERK (Thr202/Tyr204) HTRF, NCI-H441 cells

IC50 | Compound
< 50 nM | [2H]C([2H])(Oc1nc(N2CCOC[C@H]3[C@H](Cl)[C@H]32)c2cc(C(F)(F)F)c(-c3ccc(F)c4sc(N)c(C#N)c34)c(F)c2n1)[C@@]12CCCN1C[C@H](F)C2 (atropisomer, axis not shown; (aS)) [Example 420, 2-amino-4-((S)-4-((1S,7S,8S)-8-chloro-5-oxa-2-azabicyclo[5.1.0]octan-2-yl)-8-fluoro-2-(((2R,7aS)-2-fluorotetrahydro-1H-pyrrolizin-7a(5H)-yl)methoxy-d2)-6-(trifluoromethyl)quinazolin-7-yl)-7-fluorobenzo[b]thiophene-3-carbonitrile]
< 50 nM | [2H]C([2H])(Oc1nc(N2CCOC[C@H]3[C@H](F)[C@H]32)c2cc(F)c(-c3cc(N)cc4ccc(F)c(C#C)c34)c(F)c2n1)[C@@]12CCCN1C[C@H](F)C2 (atropisomer, axis not shown; (aS)) [Example 391, 4-((R)-6,8-difluoro-4-((1S,7S,8S)-8-fluoro-5-oxa-2-azabicyclo[5.1.0]octan-2-yl)-2-(((2R,7aS)-2-fluorotetrahydro-1H-pyrrolizin-7a(5H)-yl)methoxy-d2)quinazolin-7-yl)-5-ethynyl-6-fluoronaphthalen-2-amine]
